Assay [1] deals with T1, Ribonuclease pancreatic (Bos taurus, UniProt P61823).
T1 sequence (P61823 whole entry): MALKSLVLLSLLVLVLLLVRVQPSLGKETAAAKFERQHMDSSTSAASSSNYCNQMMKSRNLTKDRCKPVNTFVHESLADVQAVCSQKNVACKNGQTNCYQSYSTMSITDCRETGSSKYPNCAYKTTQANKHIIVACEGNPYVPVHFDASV
Briefly: Inhibition of bovine pancreatic ribonuclease A assessed as enzyme activity by spectrophotometric method pH 6.

Assay [2] concerns Mus musculus. Description: Inhibition of aspermatogenic activity of bovine […] assessed as width of spermatogenic layer at 1:100 ratio of BS-Rnase+compound after 10 days administered once into left testes. Format: functional, organism-based.
Assay [3] relates to Mus musculus. Description: Inhibition of aspermatogenic activity of bovine seminal ribonuclease in mouse ICR assessed as width of spermatogenic layer at 1:100 ratio of BS-Rnase+compound after 10 days administered once into left testes. Format: functional, organism-based.
In assay [4] the test system is Mus musculus. Briefly: Inhibition of aspermatogenic activity of bovine […] assessed as diameter of somniferous tubule at 1:100 ratio of BS-Rnase+compound after 10 days administered once into left testes. Format: functional, organism-based.
In assay [5] the test system is Mus musculus. Description: Inhibition of aspermatogenic activity of bovine seminal ribonuclease in mouse ICR assessed as weight of the testes at 1:100 ratio of BS-Rnase+compound after 10 days administered once into left testes. The conditions noted are these: Testis. It is filed as functional, organism-based.
Assay [6] concerns Mus musculus. Briefly: Inhibition of aspermatogenic activity of bovine seminal ribonuclease in mouse ICR assessed as diameter of somniferous tubule at 1:100 ratio of BS-Rnase+compound after 10 days administered once into left testes. Format: functional, organism-based.
The target of assay [7] is T2, Seminal ribonuclease (Bos taurus, UniProt P00669).
T2 sequence (P00669 whole entry): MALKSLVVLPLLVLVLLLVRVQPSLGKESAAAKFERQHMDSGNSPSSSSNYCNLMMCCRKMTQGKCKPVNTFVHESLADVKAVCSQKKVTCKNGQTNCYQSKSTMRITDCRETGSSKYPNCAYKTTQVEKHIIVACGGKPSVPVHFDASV
Briefly: Inhibition of bovine seminal ribonuclease assessed as enzyme activity by spectrophotometric method at pH 6.

The subject of assay [8] is Mus musculus. Description: Inhibition of aspermatogenic activity of bovine […] assessed as weight of the testes at 1:1 ratio of BS-Rnase+compound after 10 days administered once into left testes. Format: functional, organism-based. The conditions noted are these: Testis.
Assay [9] concerns Mus musculus. Description: Inhibition of aspermatogenic activity of bovine seminal ribonuclease in mouse ICR assessed as diameter of somniferous tubule at 1:1 ratio of BS-Rnase+compound after 10 days administered once into left testes. Format: functional, organism-based.
For assay [10], the system named is Mus musculus. Briefly: Inhibition of aspermatogenic activity of bovine seminal ribonuclease in mouse ICR assessed as width of spermatogenic layer at 1:1 ratio of BS-Rnase+compound after 10 days administered once into left testes. It is filed as functional, organism-based.
Assay [11] concerns Mus musculus. Description: Inhibition of aspermatogenic activity of bovine seminal ribonuclease in mouse ICR assessed as weight of the testes at 1:1 ratio of BS-Rnase+compound after 10 days administered once into left testes. Format: functional, organism-based. The note with it: Testis.

The source made the active and inactive calls. No cut-off for these calls is given here.

For orientation: Ki means the equilibrium dissociation constant of an inhibitor or competing ligand from its target. For `O=c1ccn([C@@H]2O[C@H](CO)[C@@H](OP(=O)(O)O)[C@H]2O)c(=O)[nH]1`, in assay [1], the Ki was 78.5 µM.

As to `Nc1ccn([C@@H]2O[C@H](COP(=O)(O)O)[C@@H](O)[C@H]2O)c(=O)n1`, the Ki in assay [1] is 844 µM; in assay [7], 1560 µM. The result in assay [2], in assay [4] and in [8] was Active. The result in [3], in assay [5] and in assay [6] was inactive.

In the case of `O=c1ccn([C@@H]2O[C@H](CO)[C@@H](O)[C@H]2OP(=O)(O)O)c(=O)[nH]1`, the inhibitory constant (Ki) in assay [1] was 11.6 µM.

For the compound `Nc1ccn([C@@H]2O[C@H](CO)[C@@H](OP(=O)(O)O)[C@H]2O)c(=O)n1`, in assay [1], the inhibition constant Ki is 20.1 µM. The result in assay [9], in [10] and in assay [11] was Active. Further, the result in assay [3], in [5] and in [6] was inactive.

Regarding `O=c1ccn([C@@H]2O[C@H](COP(=O)(O)OP(=O)(O)O)[C@@H](O)[C@H]2O)c(=O)[nH]1` [URIDINE_DIPHOSPHATE], in [1], the Ki was 647 µM.

The values are drawn from ChEMBL document CHEMBL1153815, “Mapping the ribonucleolytic active site of bovine seminal ribonuclease. The binding of pyrimidinyl phosphonucleotide inhibitors” (Eur J Med Chem, 2009).
